compound: CC[C@@H]1C(=O)N(C)c2cnc(Nc3ccc(C(=O)NC4CCN(C)CC4)cc3OC)nc2N1C1CCCC1 [BI-2536] + COc1cc2c(Oc3ccc(NC(=O)C4(C(=O)Nc5ccc(F)cc5)CC4)cc3F)ccnc2cc1OCCCN1CCOCC1 [Foretinib] (partner 0.25 µM); assay: relative viability (nuclei count vs DMSO), 5 days (fraction); higher = more cells survive; conditions: first compound 0.01 µM
Method in brief: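 Lung cancer cell lines were pin-tool dosed in 1536-well plates on the day after seeding, with either a lone drug or a fixed anchor-drug dose plus five library-drug doses (not always all listed) in √10 steps. Nuclei were counted on 4× images after 5 days. Relative viability is the ratio of treated-well to vehicle-well nuclei counts, with each value a median of duplicate plates.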

Cell Line | relative viability
Calu-6 | 0.8
HCC-366 | 0.959
NCI-H1666 | 1.02
NCI-H596 | 0.642
LK-2 | 1.32
NCI-H2087 | 1.03
NCI-H2342 | 1.01
SK-MES-1 | 0.926
H3255 | 0.769
IA-LM | 1.24
A549 | 0.962
SW 900 | 0.775
NCI-H661 | 1.13
NCI-H1299 | 1.15
NCI-H1563 | 0.905
ABC-1 | 1.18
NCI-H358 | 0.623
NCI-H650 | 0.981

same assay, conditions: first compound 0.03162 µM

Cell Line | relative viability
NCI-H1623 | 0.864
NCI-H727 | 0.888
NCI-H1650 | 1.14
EBC-1 | 0.0943
NCI-H1703 | 0.296
NCI-H1993 | 0.828
SW 1573 | 0.91
NCI-H838 | 1.06
LCLC-103H | 0.854
NCI-H520 | 0.632
NCI-H2126 | 1.28
EMC-BAC-2 | 1.18
NCI-H2085 | 0.686
Calu-6 | 0.613
HCC-366 | 0.847
NCI-H1666 | 0.981

Cell Line | relative viability
NCI-H596 | 0.955
LK-2 | 0.923
NCI-H2087 | 1.17
NCI-H2342 | 0.973
SK-MES-1 | 0.778
H3255 | 1.03
IA-LM | 1.14
A549 | 0.901
SW 900 | 0.8
NCI-H661 | 0.889
NCI-H1299 | 1.09
NCI-H1563 | 1.06
ABC-1 | 0.868
NCI-H358 | 0.598
NCI-H650 | 0.952

same assay, conditions: first compound 0.1 µM

Cell Line | relative viability
NCI-H1623 | 0.83
NCI-H727 | 0.711
NCI-H1650 | 0.484
EBC-1 | 0.0905
NCI-H1703 | 0.191
NCI-H1993 | 0.694
SW 1573 | 0.936
NCI-H838 | 0.636
LCLC-103H | 0.618
NCI-H520 | 0.242
NCI-H2126 | 1.05
EMC-BAC-2 | 0.947
NCI-H2085 | 0.707
Calu-6 | 0.281
HCC-366 | 0.225
NCI-H1666 | 0.826

Cell Line | relative viability
NCI-H596 | 0.803
LK-2 | 0.861
NCI-H2087 | 0.476
NCI-H2342 | 0.976
SK-MES-1 | 0.927
H3255 | 0.49
IA-LM | 0.518
A549 | 0.427
SW 900 | 0.983
NCI-H661 | 0.388
NCI-H1299 | 0.773
NCI-H1563 | 0.923
ABC-1 | 0.711
NCI-H358 | 0.08
NCI-H650 | 0.678

same assay, conditions: first compound 0.3162 µM

Cell Line | relative viability
NCI-H1623 | 0.345
NCI-H727 | 0.515
NCI-H1650 | 0.135
EBC-1 | 0.0859
NCI-H1703 | 0.152
NCI-H1993 | 0.634
SW 1573 | 0.196
NCI-H838 | 0.145
LCLC-103H | 0.161
NCI-H520 | 0.184
NCI-H2126 | 0.309
EMC-BAC-2 | 0.202
NCI-H2085 | 0.199
Calu-6 | 0.0815
HCC-366 | 0.0291
NCI-H1666 | 0.447

Cell Line | relative viability
NCI-H596 | 0.292
LK-2 | 0.18
NCI-H2087 | 0.133
NCI-H2342 | 0.633
SK-MES-1 | 0.204
H3255 | 0.261
IA-LM | 0.0587
A549 | 0.0288
SW 900 | 0.2
NCI-H661 | 0.296
NCI-H1299 | 0.308
NCI-H1563 | 0.67
ABC-1 | 0.249
NCI-H358 | 0.101
NCI-H650 | 0.207

same assay, conditions: first compound 1 µM

Cell Line | relative viability
NCI-H1623 | 0.321
NCI-H727 | 0.371
NCI-H1650 | 0.115
EBC-1 | 0.0908
NCI-H1703 | 0.14
NCI-H1993 | 0.537
SW 1573 | 0.158
NCI-H838 | 0.134
LCLC-103H | 0.153
NCI-H520 | 0.218
NCI-H2126 | 0.27
EMC-BAC-2 | 0.194
NCI-H2085 | 0.276
Calu-6 | 0.0737
HCC-366 | 0.0206
NCI-H1666 | 0.421
NCI-H596 | 0.205
LK-2 | 0.162
NCI-H2087 | 0.124
NCI-H2342 | 0.357

Reference: the supplement of paper PMC10307832
